B1: B1EPH2, α/β-epoxide hydrolase from Streptomyces sp. CBMAI 2042 (enzyme)
chain: VPQPPTDDPTTPAEKGAVHRLVDTPGGRIHLVEQGTGPLVLLVHGFPESWYSWRHQLPALAAAGYRAAAIDVRGYGRSAKPAATDAYRMLAHVADNTAVVHALGEETATVVGHDWGSPIAANSALLRPDVFTAVGLLSVPYAPRGEHRPTDGFARIGGDEEFYVSYFQAPGRAEAEIERDVRGWLAGFYTGLTGGALTPEEHGRLFFVPPGAHLADRFPTGPLPAWLTEADLDVYSGEFERSGLTGALNRYRNVDRDWEDLAAWHGAPITQPSLFIGGALDASTTWMADALDAYPATLPGLSAAHILEGCGHWIQQERPDEVNRLLTQWLDGLR
notes: B1EPH2, putative α/β-epoxide hydrolase of Streptomyces sp; CBMAI 2042; the text says 344 amino acids; the b1eph2 ORF was amplified from genomic DNA and cloned into pET-29b(+) (plasmid pGTEPH2); Hexamer by the crystal structure (three protomers in the asymmetric unit, twofold crystallographic symmetry) and by analytical gel filtration; they are surmised from pET-29b(+) and the nickel column; also …

Assays:
B1EPH2 = target: T1, B1EPH2 (Streptomyces sp. CBMAI 2042, UniProt A0ACD6BAW7); assay: adrenaline test (periodate back-titration, […] nm); assay type: biochemical; settings: pH 6.0 sodium phosphate; racemic substrate in DMSO
T1 construct: gene STAN_0072; ORF in pET-29b(+), E. coli BL21(DE3), nickel IMAC and gel filtration; protomer 37 kDa, hexamer (252 kDa by gel filtration)

[1] = target: the molecule itself; assay: crystal structure; X-ray, 2.2 Å, space group P4(1)22; hanging drop, 0.1 M sodium cacodylate pH 6.5, 1 M trisodium citrate, protein 12.5 mg/ml in 50 mM HEPES pH 8.0, 300 mM NaCl; three protomers in the asymmetric unit, hexamer by twofold crystallographic symmetry

Molecule | % conversion relative to 1,2-cyclohexanediol (B1EPH2) [%] | stoichiometry N [1]
c1ccc(OCC2CO2)cc1 (racemic) [compound 3, phenyl glycidyl ether] | 25 | –
B1 | – | 6

Source: publication PMC7466753, “An epoxide hydrolase from endophytic Streptomyces shows unique structural features and wide biocatalytic activity” (Acta Crystallographica. Section D, Structural Biology, 2020)
